For 15 compounds, IC50 results are on record in ChEMBL document CHEMBL6074679, “Diastereoselective synthesis and biological evaluation of new fluorine-containing α-aminophosphonates as anticancer agents and scaffold to human urokinase plasminogen activator inhibitors” (Eur J Med Chem, 2025).

The test system of one series is U-87 MG. The series can be described thus: Cytotoxicity against human U-87 MG cells incubated for 48 hrs by MTT assay. In kind it is functional, cell-based, U-87MG ATCC.
The next series relates to U-251. The experiment in a line: Cytotoxicity against human U-251MG cells incubated for 48 hrs by MTT assay. The following applies: U-251, 48 h. In kind it is functional, cell-based. Background: Tetrazolium dyes change colour on reduction, which living cells bring about.
The next series concerns U-118-MG. The series can be described thus: Cytotoxicity against human U-118 MG cells incubated for 48 hrs by MTT assay. In kind it is functional, cell-based.
The test system of a further series is OVCAR-3. The experiment in a line: Cytotoxicity against human OVCAR-3 cells incubated for 48 hrs by MTT assay. In kind it is functional, cell-based. As to conditions: OVCAR-3, 48 h.
For a further series, the system named is SK-OV-3. The experiment in a line: Cytotoxicity against human SK-OV-3 cells incubated for 48 hrs by MTT assay. The format is functional, cell-based. As to conditions: SK-OV-3, 48 h.
The subject of the next series is HepG2. The experiment in a line: Cytotoxicity against human HepG2 cells incubated for 48 hrs by MTT assay. The format is functional, cell-based. The following applies: HepG2, 48 h.
The subject of a further series is Caco-2. The series can be described thus: Cytotoxicity against human Caco-2 cells incubated for 48 hrs by MTT assay. In kind it is functional, cell-based. As to conditions: Caco-2, 48 h.
The next series relates to HeLa. The experiment in a line: Cytotoxicity against human HeLa cells incubated for 48 hrs by MTT assay. The format is functional, cell-based.
The test system of the next series is MDA-MB-231. The series can be described thus: Cytotoxicity against human MDA-MB-231 cells incubated for 48 hrs by MTT assay. The format is functional, cell-based. As to conditions: MDA-MB-231, 48 h.
In a further series the test system is A549. The series can be described thus: Cytotoxicity against human A549 cells incubated for 48 hrs by MTT assay. In kind it is functional, cell-based. As to conditions: A549, 48 h.
Series [1] in a line: Cytotoxicity against human MRC5 cells incubated for 48 hrs by MTT assay. In kind it is toxicity, cell-based.
In series [2] the target is Urokinase-type plasminogen activator (Homo sapiens, UniProt P00749). The series can be described thus: Inhibition of human urokinase uPA using Z-Gly-Gly-Arg-AMC as substrate by fluorescence plate reader assay.

As usually defined, the IC50 is the point on the concentration scale where inhibition reaches its midpoint. Take `CCOP(=O)(OCC)C(N[C@H](C)c1ccccc1)c1ccc(F)cc1F` (stereo not given in full): the IC50 with U-87 MG worked out at 7.68 µM; in the series on U-251, 5.59 µM; in the series with U-118-MG, 34.6 µM; with OVCAR-3, 5.56 µM; with SK-OV-3, 3.24 µM; in the series with HepG2, 117 µM. Further, the 50% inhibitory concentration (IC50) with Caco-2 was determined as 2.24 µM; in the series on HeLa, 4.11 µM; with MDA-MB-231, 11.6 µM; in the series with A549, 35.4 µM. The same compound showed an IC50 at 48 h in series [1] of 16.6 µM.

For the compound `COP(=O)(OC)C(N[C@@H](C)C(C)(C)C)c1ccc(F)cc1F` (stereo not given in full), the IC50 amounted to 40.7 µM in the series on U-87 MG; 119 µM in the series on U-251; 87.7 µM in the series with U-118-MG; 66.3 µM in the series on OVCAR-3; 131 µM in the series with SK-OV-3; 59.5 µM in the series with HepG2. The IC50 in the series with Caco-2 came to 6.44 µM; in the series with HeLa, 9.85 µM; in the series on MDA-MB-231 it was 165 µM; with A549, 1.82 µM. For the same compound, it took 82.2 µM to reach half-maximal inhibition in [1] (IC50 at 48 h).

Regarding `COP(=O)(OC)C(N[C@@H](C)C(C)(C)C)c1ccccc1F` (stereo not given in full), the IC50 with U-87 MG turned out to be 3.27 µM; in the series with U-251, 8.95 µM; in the series with U-118-MG, 81.2 µM; in the series with OVCAR-3, 51.7 µM; in the series with SK-OV-3, 21.9 µM; in the series on HepG2, 59.6 µM. Further, the half-maximal inhibitory concentration (IC50) in the series on Caco-2 came to 1.3 µM; in the series with HeLa, 21.4 µM; in the series with MDA-MB-231, 160 µM; in the series with A549, 55.1 µM. In addition, in series [1], it took 34.4 µM to reach half-maximal inhibition (IC50 at 48 h).

Turning to `COc1ccc([C@@H](C)NC(c2ccc(F)cc2)P(=O)(OC(C)C)OC(C)C)cc1` (stereo not given in full), the IC50 in the series on U-87 MG is 21.7 µM; with U-251, 27 µM; with U-118-MG, 18.2 µM; in the series with OVCAR-3 it was 44.3 µM; in the series with SK-OV-3, 8.41 µM; in the series on HepG2 it was 7.74 µM. In addition, the IC50 in the series with Caco-2 was determined as 6.47 µM; in the series on HeLa, 3.18 µM; in the series with MDA-MB-231, 33.8 µM; with A549 it was 37.7 µM; in series [2], 493 µM. In series [1], this compound displayed an IC50 at 48 h of 5.9 µM.

With `CCOP(=O)(OCC)C(N[C@H](C)c1ccc(OC)cc1)c1ccc(F)cc1F` (stereo not given in full), the IC50 in the series with U-87 MG was 59.2 µM; in the series on U-251, 53.2 µM; in the series with U-118-MG it was 43.6 µM; in the series with OVCAR-3, 0.64 µM; in the series on SK-OV-3 it was 1.63 µM; in the series on HepG2, 7.79 µM. Further, the 50% inhibitory concentration (IC50) in the series on Caco-2 turned out to be 47.4 µM; in the series with HeLa, 32.4 µM; in the series with MDA-MB-231 it was 156 µM; with A549, 21.6 µM; in [2] it was 280 µM. In series [1], the concentration for half-maximal inhibition (IC50) at 48 h was determined as 4.71 µM.

Turning to `COc1ccc([C@@H](C)NC(c2ccccc2F)P(=O)(OC)OC)cc1` (stereo not given in full), the IC50 in the series with U-87 MG is 9.24 µM; in the series on U-251, 8.7 µM; with U-118-MG it was above 500 µM; in the series with OVCAR-3 it was 15.7 µM; in the series with SK-OV-3, 338 µM; in the series on HepG2, 72.6 µM. The IC50 with Caco-2 is 1.3 µM; in the series with HeLa it was 5.18 µM; in the series with MDA-MB-231, 167 µM; with A549, 43.3 µM; in series [2], 114 µM. The same compound registered an IC50 at 48 h in [1] of 29.1 µM.

With `COP(=O)(OC)C(N[C@H](C)c1ccccc1)c1ccc(F)cc1F` (stereo not given in full), the IC50 is 57 µM in the series with U-87 MG; 110 µM with U-251; 67.7 µM in the series on U-118-MG; 2.47 µM with OVCAR-3; 17.4 µM in the series with SK-OV-3; 47.9 µM in the series with HepG2. The IC50 with Caco-2 is 8.63 µM; in the series with HeLa, 5.35 µM; in the series on MDA-MB-231 it was 170 µM; in the series on A549, 5.45 µM. This compound also returned an IC50 at 48 h in series [1] of 5.24 µM.

On to `CCOP(=O)(OCC)C(N[C@@H](C)C(C)(C)C)c1ccc(F)cc1` (stereo not given in full), for which the IC50 in the series on U-87 MG was determined as 11 µM; in the series with U-251, 24.4 µM; in the series on U-118-MG it was 64.2 µM; in the series with OVCAR-3 it was 71.6 µM; in the series on SK-OV-3, 15.3 µM; with HepG2, 34.5 µM. The IC50 with Caco-2 was determined as 51.4 µM; with HeLa, 13 µM; in the series on MDA-MB-231 it was 59.3 µM; in the series on A549, 49.2 µM. The IC50 at 48 h in series [1] was found to be 13.8 µM.

As for `COP(=O)(OC)C(N[C@H](C)c1ccccc1)c1c(F)c(F)c(F)c(F)c1F` (stereo not given in full), the IC50 with U-87 MG turned out to be 5.45 µM; in the series with U-251, 34.1 µM; in the series on U-118-MG, 51.2 µM; in the series with OVCAR-3 it was 13 µM; in the series with SK-OV-3, 28.2 µM; with HepG2 it was 55.1 µM. Moreover, the 50% inhibitory concentration (IC50) was 6.02 µM in the series on Caco-2, 4.09 µM in the series on HeLa, 94.3 µM in the series on MDA-MB-231 and 49.6 µM with A549. Besides, the half-inhibitory concentration (IC50) at 48 h in [1] amounted to 84.1 µM.

For the compound `CC(C)OP(=O)(OC(C)C)C(N[C@@H](C)C(C)(C)C)c1ccc(F)cc1F` (stereo not given in full), the IC50 in the series with U-87 MG was 7.78 µM; with U-251 it was 3.97 µM; in the series with U-118-MG it was 150 µM; in the series with OVCAR-3, 194 µM; in the series on SK-OV-3, 8.63 µM; with HepG2, 23.6 µM. The IC50 with Caco-2 was 10.5 µM; in the series on HeLa, 5.37 µM; in the series on MDA-MB-231, 9.89 µM; in the series on A549 it was 72 µM. Also, the IC50 at 48 h in series [1] was 47.8 µM.

In the case of `COc1ccc([C@@H](C)NC(c2c(F)cc(F)cc2F)P(=O)(OC)OC)cc1` (stereo not given in full), the IC50 is 22.6 µM in the series on U-87 MG; 47.8 µM in the series with U-251; 70 µM with U-118-MG; 78.6 µM with OVCAR-3; 4.2 µM in the series on SK-OV-3; 13.2 µM in the series on HepG2. The IC50 in the series on Caco-2 is 14.6 µM; in the series on HeLa it was 17.5 µM; in the series on MDA-MB-231, 27 µM; with A549, 33.2 µM. This compound also had an IC50 at 48 h in series [1] of 5.86 µM.

As to `CCOP(=O)(OCC)C(N[C@@H](C)C(C)(C)C)c1ccc(F)cc1F` (stereo not given in full), the IC50 in the series on U-87 MG worked out at 10.5 µM; in the series with U-251 it was 48.6 µM; with U-118-MG, 35.5 µM; in the series with OVCAR-3, 48.3 µM; with SK-OV-3, 110 µM; in the series with HepG2, 18.4 µM. Besides, the IC50 in the series on Caco-2 turned out to be 27.4 µM; in the series on HeLa it was 4.46 µM; with MDA-MB-231, 5.58 µM; with A549 it was 18 µM. Moreover, the IC50 at 48 h in series [1] came to 107 µM.

As to `COc1ccc([C@@H](C)NC(c2ccc(F)cc2F)P(=O)(OC)OC)cc1` (stereo not given in full), the IC50 in the series on U-87 MG turned out to be 9.92 µM; in the series on U-251 it was 19 µM; in the series on U-118-MG it was 183 µM; in the series with OVCAR-3 it was 100 µM; in the series with SK-OV-3, 3.71 µM; in the series on HepG2, 58.5 µM. Further, the IC50 in the series with Caco-2 turned out to be 28.5 µM; in the series with HeLa it was 2.54 µM; with MDA-MB-231, 11 µM; with A549, 53.1 µM; in series [2], 147 µM. This compound came in with an IC50 at 48 h in [1] of 10.6 µM.

As to `COP(=O)(OC)C(NC(C)C(C)(C)C)c1ccc(F)cc1` (racemic), the IC50 in the series with U-87 MG came to 39.8 µM; in the series with U-251, 16.5 µM; with U-118-MG, 45.8 µM; in the series on OVCAR-3, 104 µM; in the series with SK-OV-3 it was 8.75 µM; in the series on HepG2, 5.57 µM. Moreover, the IC50 with Caco-2 came to 16.1 µM; with HeLa, 6.28 µM; in the series with MDA-MB-231, 230 µM; with A549 it was 7.95 µM. In series [1], this compound registered an IC50 at 48 h of 90.7 µM.

On to `O=c1[nH]c(=O)n([C@H]2C[C@H](O)[C@@H](CO)O2)cc1F` [FLOXURIDINE], for which the concentration for half-maximal inhibition (IC50) in the series on U-87 MG amounted to 18.5 µM; in the series with U-251 it was 17.8 µM; in the series on OVCAR-3 it was 24.5 µM; in the series on SK-OV-3, 12.8 µM; in the series with HepG2, 37.9 µM; in the series on MDA-MB-231, 5.65 µM. In the series on A549, this compound had an IC50 of 22.8 µM.
